By IC50 is commonly meant the midpoint of a concentration-inhibition curve. Read a high IC50 as weaker potency.

Active and inactive are the calls of the source. The rule behind the calls is not given here.

What all share (format): functional, cell-based
In test [1] the test system is HUVEC. Put plainly: Antiproliferative activity against human HUVEC cells after 72 hrs.
Test [2] is described as follows: Antiproliferative activity against human KB3-1 cells after 72 hrs. Particulars: KB 3-1, 72 h.
For test [3], the system named is HUVEC. Put plainly: Inhibition of VEGF-induced migration in human HUVEC cells.
Test [4] concerns HUVEC. The experiment in a line: Inhibition of VEGF-induced tubular formation in human HUVEC cells.

Take `CC(C)=C/C=C/C(C)=C/C=C/C(C)=C1/C(=O)C[C@H]2CC3(CC[C@]12C)OCCO3`: the IC50 with HUVEC [1] was 13 µM; in test [2], 20 µM.

As to `CC(C)=C/C=C/C(C)=C/C=C/C(C)=C1/CC[C@H]2CC3(CC[C@]12C)OCCO3`, the IC50 in the test with HUVEC [1] came to 8.8 µM; in test [2], 21 µM.

Regarding `COC(=O)[C@]1(C)[C@@H]2CC[C@]3(C)\C(=C(C)/C=C/C=C(C)\C=C\C=C(C)C)C(=O)C[C@H]3[C@@]2(C)CC[C@H]1OC(C)=O` (stereo in doubt), the outcome in the test on HUVEC [3] and in the test on HUVEC [4] was Active.

On to `COC(=O)[C@]1(C)[C@@H]2CC[C@]3(C)\C(=C(C)/C=C/C=C(C)/C=C/C=C(C)C)C(=O)C[C@H]3[C@@]2(C)CC[C@H]1OC(C)=O` (stereo in doubt), for which the outcome in the test with HUVEC [3] and in the test on HUVEC [4] was Active. Besides, the concentration for half-maximal inhibition (IC50) came to 0.09 µM in the test with HUVEC [1] and 14 µM in test [2].

Take `CC(C)=C/C=C/C(C)=C/C=C/C(C)=C1/C(=O)C[C@H]2CC(=O)CC[C@]12C`: the results for the IC50 (in the test on HUVEC [1]; in test [2]) were 2.6 µM and 17 µM, respectively.

In the case of `COC(=O)[C@]1(C)[C@@H]2CC[C@]3(C)/C(=C(C)/C=C/C=C(C)/C=C/C=C(C)C)C(=O)C[C@H]3[C@@]2(C)CC[C@H]1OC(C)=O` (stereo in doubt), the outcome with HUVEC [3] and in the test on HUVEC [4] was Active.

For `COC(=O)[C@]1(C)[C@@H]2CC[C@]3(C)/C(=C(C)/C=C/C=C(C)\C=C\C=C(C)C)C(=O)C[C@H]3[C@@]2(C)CC[C@H]1OC(C)=O` (stereo in doubt), the outcome with HUVEC [3] and in the test on HUVEC [4] was Active.

The values above are taken from ChEMBL document CHEMBL1145566, “Synthesis of BC-ring model of globostellatic acid X methyl ester, an anti-angiogenic substance from marine sponge” (Bioorg Med Chem Lett, 2008).
